What all share (experiment): inhibition of tumour cell growth, NCI panel, 48 h
Experiment [1] deals with DLD-1.
For experiment [2], the system named is HCT-15.
Experiment [3] has as its system HL-60.
Experiment [4] has as its system HOP-92.
Experiment [5] concerns LOX IMVI.
The test system of experiment [6] is MOLT-4.
For experiment [7], the system named is Malme-3M.
For experiment [8], the system named is NCI-H23.
The subject of experiment [9] is RPMI-8226.
The test system of experiment [10] is SF-539.
Experiment [11] has as its system SK-OV-3.
The subject of experiment [12] is SN12C.
The subject of experiment [13] is SNB-78.
The subject of experiment [14] is SW-620.
Experiment [15] deals with UACC-257.
In experiment [16] the test system is UO-31.
In experiment [17] the test system is DMS-114.
Experiment [18] has as its system KM12.
Experiment [19] deals with SF-268.
Experiment [20] has as its system NCI/ADR-RES.

The results in this text go back to ChEMBL document CHEMBL1201862, “PubChem BioAssay data set” (2004).

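Results reflect a 48-hour exposure of cells in 96-well plates to compound at five concentrations. Abbreviation: GI50, concentration required for 50% inhibition of growth.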 The source made the active and inactive calls. No stated cut-off is given here; in the data, active = GI50 up to about 1.1 µM and inactive = higher.

Take `CCOC(=O)C1C(c2cc(OC)c(O)c(OC)c2)c2cc3c(cc2OC1(C)O)OCO3` (stereo not given): the GI50 is 42.6 µM (inactive) in [1]; 46.6 µM in [2]; > 100 µM (inactive) in experiment [3]; 11.5 µM (inactive) in experiment [4]; 93.1 µM (inactive) in [5]; 35 µM (inactive) in [6]. Also, the GI50 in [7] was > 100 µM (inactive); in [8], 66.5 µM (inactive); in [9] it was 71.1 µM (inactive); in experiment [10], > 100 µM (inactive); in experiment [11] it was > 100 µM (inactive); in experiment [12] it was 88.5 µM (inactive). Further, the GI50 in [13] is 81.7 µM (inactive); in experiment [14], 42.9 µM (inactive); in experiment [15], 61.9 µM (inactive); in experiment [16] it was 41.8 µM (inactive).

For `Cn1ncc2c(=O)[nH]c(-c3ccccc3)nc21`, the GI50 is > 100 µM (inactive) in experiment [1]; > 100 µM (inactive) in experiment [17]; above 100 µM in experiment [2]; > 100 µM (inactive) in experiment [3]; > 100 µM (inactive) in experiment [18]; > 100 µM (inactive) in [5]. Also, the GI50 in [6], in experiment [7], in experiment [8], in [9], in experiment [19] and in experiment [10] was > 100 µM (inactive) throughout. For the same compound, the GI50 in experiment [11], in experiment [12], in experiment [13], in experiment [14], in experiment [15] and in experiment [16] was > 100 µM (inactive) in each case.

For `COc1ccc(C2C(=O)C(Cl)N2Nc2nc(C)cc(O)n2)cc1OC` (stereo not given), the GI50 in experiment [2] is 20.2 µM; in experiment [3], 13.9 µM (inactive); in experiment [4], 25.5 µM (inactive); in experiment [18] it was 39.6 µM (inactive); in experiment [5], 18.1 µM (inactive); in experiment [6], 18.7 µM (inactive). Moreover, the GI50 in experiment [8] was 25.3 µM (inactive); in experiment [9] it was 19.1 µM (inactive); in experiment [19], 17.9 µM (inactive); in [10] it was 24 µM (inactive); in experiment [12], 21.7 µM (inactive); in experiment [13], 21.1 µM (inactive). The GI50 in experiment [14] was 45.3 µM (inactive); in experiment [15], 40.6 µM (inactive); in experiment [16] it was 29.9 µM (inactive).

`CCOC(=O)c1c(NC(=S)NCc2ccccc2)sc2c1CCN(C)C2`: the GI50 in [2] was 68.1 µM; in experiment [3] it was 17.4 µM (inactive); in [18] it was 24.4 µM (inactive); in [6], 20.4 µM (inactive); in [8] it was 65.5 µM (inactive); in experiment [20], > 100 µM (inactive). The GI50 in experiment [9] was 28.5 µM (inactive); in experiment [19] it was 64 µM (inactive); in experiment [10] it was 69.2 µM (inactive); in experiment [12], 42.7 µM (inactive); in experiment [15], > 100 µM (inactive); in experiment [16] it was 64.4 µM (inactive).

With `O=C1OC(c2ccccc2)=N/C1=C\c1cccnc1`, the GI50 is above 100 µM in experiment [2]; 20.7 µM (inactive) in experiment [3]; > 100 µM (inactive) in experiment [4]; > 100 µM (inactive) in [18]; 2.84 µM (inactive) in [6]; > 100 µM (inactive) in experiment [8]. For the same compound, the GI50 in [20] was > 100 µM (inactive); in experiment [9], 48.3 µM (inactive); in experiment [19], > 100 µM (inactive); in experiment [10] it was > 100 µM (inactive); in experiment [11], > 100 µM (inactive); in [14], > 100 µM (inactive). In addition, the GI50 in experiment [15] and in experiment [16] was > 100 µM (inactive) in each case.
